# Experimental data taken from US4490364A, “CCK Agonists II” (The Salk Institute for Biological Studies, priority 1983, dated 1984).
# Non-standard residues stand in square brackets, D forms with d. Residues, ends and D or L forms follow the SMILES beside them. sY = N[C@@H](Cc1ccc(OS(=O)(=O)O)cc1)C(=O)O
# How the values were obtained:
# [1] = tested on: secretion of gastric acid; conditions: i.v. at low dosages; cited from earlier work
# [2] = Ondetti and Pluscec; cited from earlier work
# mouse = assay: anticonvulsive effect against picrotoxin-induced seizures in the mouse; type: in vivo; conditions: peptide about 0.8 micromoles per kg parenterally, then picrotoxin i.p., relative to CCK(1-8) = 100%
# Protocol: The anticonvulsive effect is measured by the method as generally described in The European J. of Pharm., 65, 297 (1980). More specifically, a mouse is first injected parenterally with the peptide being tested with a single dose equal to about 0.8 micromoles per kilogram of body weight. Thereafter, picrotoxin is injected i.p. in an amount equal to about […] of body weight. The parameters that are measured: time until first tremor, time until first clonic seizure, time until first tonic seizure and time of latentia until death, measured from the time of injection of the picrotoxin.
# muscle sphincter Oddii = conditions: cited from earlier work
# [3] = tested on: isolated strips of rabbit gall bladder; assay: contraction of the gall bladder (CCK-activity), isolated strips of rabbit gall bladder; type: cell-based
# Protocol: (§1) To determine the effectiveness of the various synthetic peptides, they are tested for their ability to stimulate the contraction of the gall bladder, for gastrinic activity in the stomach and for their anticonvulsive effect. Certain well known tests are carried out, and the results are measured and compared to the activity of CCK(1-8). Some of the results are given as a percentage relative to the activity of CCK(1-8). The ability to stimulate the contraction of the gall bladder is measured using a modified method of Amer and Becvar, described in J. Endocrinology, 43, 637 (1969) and employing isolated strips of rabbit gall bladder.
# perfused rat stomach = assay: gastrinic activity on perfused rat stomach, conductometric titration of HCl liberated after iv administration; type: in vivo
# Protocol: as §1
Compound,gastrinic activity in causing secretion of gastric acid [1],activity compared with the complete molecule of cholecystokinin-pancreozymin [2],Delay until first tonic seizure (efficacy) (mouse) [%],Delay until time of death (efficacy) (mouse) [%],action on the muscle sphincter Oddii (muscle sphincter Oddii),CCK activity compared with CCK(1-8) ([3]; result in words),gastrinic activity (perfused rat stomach; result in words),"CCK-activity % /CCK (1-8) 100%/ ([3]; relative to CCK(1-8) = 100%, contraction of isolated rabbit gall bladder strips) [%]","gastrinic activity % /Pentagastrin 100%/ (perfused rat stomach; relative to pentagastrin = 100%, perfused rat stomach, iv) [%]"
CSCC[C@H](NC(=O)[C@H](Cc1ccc(OS(=O)(=O)O)cc1)NC(=O)[C@@H](N)CC(=O)O)C(=O)NCC(=O)N[C@@H](Cc1c[nH]c2ccccc12)C(=O)N[C@@H](CCSC)C(=O)N[C@@H](CC(=O)O)C(=O)N[C@@H](Cc1ccccc1)C(N)=O [CCK (1-8)],some gastrinic activity,considerably higher activity than the complete molecule of cholecystokinin-pancreozymin,100,100,strong relaxing action,–,–,–,–
H--Asp--Tyr(OSO3 Na)--Nle--Gly--Trp--Nle--Hyp(OSO3 Na)--Tyr(OCH3)--NH2,–,–,–,–,–,CCK activity significantly greater than CCK(1-8),substantially no gastrinic activity,–,–
"CSCC[C@H](NC(=O)[C@H](Cc1c[nH]c2ccccc12)NC(=O)[C@@H](C)NC(=O)[C@H](CCSC)NC(=O)[C@H](Cc1ccc(OS(=O)(=O)O)cc1)NC(C)=O)C(=O)N[C@@H](CC(=O)O)C(=O)N[C@@H](Cc1ccccc1)C(N)=O [[D-Ala^4]-Ac-CCK (2-8), Ac--Tyr(OSO3 Na)--Met--D--Ala--Trp--Met--Asp--Phe--NH2] (Ac-[sY]M[dA]WMDF-NH2)",–,–,100,126,–,–,–,40,0
